{"source": "patent US11697833B2", "about": "“Antimicrobial susceptibility testing device and method for use with portable electronic device” (THE REGENTS OF THE UNIVERSITY OF CALIFORNIA, priority 2016, dated 2023)", "tested_on": "Klebsiella pneumoniae", "test": "Broth microdilution antimicrobial susceptibility testing (AST) of patient isolates, 96-well plate read for turbidity", "format": "cell-based", "settings": "clinical patient isolate plates, 24 hours at 37° C, plate ID 1 (AM), 5 (A/S), 8 (MPM); for Diagnostician Decision (drug susceptibility interpretation): expert diagnostician visual reading (gold standard); for Automated System Decision (drug susceptibility interpretation): mobile phone-based AST plate reader, misdiagnosed cases", "source_text": "To determine whether a particular well 22 contains sufficient turbidity or not, a threshold-based approach is used to determine the cut-off transmittance value for each well 22. As the turbidity increases, the light transmittance through the well decreases. This operation is illustrated as operation 230 in FIGS. 4 and 5. In particular, thresholding is applied to average normalized well intensities of sample-containing wells to determine whether a particular well 22 is classified as “turbid” or “not turbid.” To choose an accurate threshold value for each well 22, the normalized transmittance values of wells 22 with no turbidity are extracted from a training set of blank reference plates 20 (i.e., plates with drugs but no microbes). For example, sixty (60) such plates that are blanks can be imaged to determine the mean transmittance at each well 22. […] In one embodiment, from this set of normalized transmittance values from wells 22 with no turbidity, a threshold of two times the standard deviation below the mean of that particular well 22 is used to determine whether a given test or sample-containing well 22 is statistically likely to have microbial growth represented by turbidity. Those wells 22 that have an averaged, normalized intensity level that is lower than two times the standard deviation below the mean “not turbid” value are classified as “turbid” while wells 22 that don't meet that criteria are classified as “not turbid.” Of course, other measures may be used for defining the cutoff or threshold. For example, fractional standard deviation may also be used for a cutoff or threshold. In addition, the threshold could also include a numerical cutoff of intensity or other multiple of the standard deviation.\nWith reference to FIG. 3, after the wells 22 are classified as “turbid” or “not turbid,” the software 112 generates MIC values and susceptibility characterizations for the drug(s) on the AST plate 20. For a given type of AST plate 20 (i.e., Gram-negative or Gram-positive), the MIC value for each drug is determined by finding the lowest concentration of drug in a drug-specific set of wells 22 that contains no turbidity. More specifically, the MIC value is based on the adjacent, well 22 that is classified as not turbid as this well represents the lowest concentration of antibiotic that prevented bacterial growth (i.e. the MIC). Depending on the selected microbe of interest, drug susceptibility interpretations are automatically made by the software 112 based on the MIC for each drug. FIG. 7 illustrates the layout of a map or table 114 for the AST plate 20 with susceptibility characterizations for each drug at different concentration levels. The map or table 114 with susceptibility characterizations for each drug at different concentration levels may be stored in a database (e.g., database 109 or other local storage device) as a look-up table or the like. In some embodiments, the map or table 114 for each different bacterium may be stored in the database 109 or local storage device. For example, in looking at FIG. 7 with the example of the drug ampicillin (AM), various concentrations (μg/ml) of this drug is present within wells B1, C1, D1, E1 along with a growth medium. If wells B1 and C1 were classified as turbid while wells D1 and E1 were classified as not turbid, the MIC reading would be 16 μg/ml (e.g., looking at concentration in well D1). Likewise, the susceptibility characterization would be classified as “indeterminate” using the map or table 114. […]", "data": [{"compound": "Ampicillin-Sulbactam [A/S]", "values": [{"measurement": "Diagnostician Decision (drug susceptibility interpretation)", "result": "Indeterminate"}, {"measurement": "Automated System Decision (drug susceptibility interpretation)", "result": "Resistant"}]}, {"compound": "C[C@@H](O)[C@H]1C(=O)N2C(C(=O)O)=C(S[C@@H]3CN[C@H](C(=O)N(C)C)C3)[C@H](C)[C@H]12", "note": "[MPM, Meropenem]", "values": [{"measurement": "Diagnostician Decision (drug susceptibility interpretation)", "result": "Susceptible"}, {"measurement": "Automated System Decision (drug susceptibility interpretation)", "result": "Resistant"}]}, {"compound": "CC1(C)S[C@@H]2[C@H](NC(=O)[C@H](N)c3ccccc3)C(=O)N2[C@H]1C(=O)O", "note": "[AM, Ampicillin]", "values": [{"measurement": "Diagnostician Decision (drug susceptibility interpretation)", "result": "Indeterminate"}, {"measurement": "Automated System Decision (drug susceptibility interpretation)", "result": "Resistant"}]}]}
